# Results: patent US10206897B2 (Board of Regents of the University of Nebraska, priority 2000, dated 2019)
# Read-outs that look alike come from different tables or passages of the source.
# Experiments:
# [1] = test system: brain microvessel endothelial cells (BMEC); assay: prostaglandin E2 release from BMEC monolayers exposed to bacterial lipopolysaccharide; format: cell-based
# Description: In an exemplary study primary cultured brain microvessel endothelial cells (BMEC) were used as an in vitro cell culture model to examine inflammation. These cells have been used previously to examine the effects of the inflammatory mediators such as tumor necrosis factor (TNF), and bacterial lipopolysaccharide (LPS). See Mark, K. S. and Miller, D. W. increased Permeability of Prim my Cultured Brain Microvessel Endothelial Cell Monolayers Following Tumor Necrosis Factor-Alpha Exposure. Life Sci. 64: 1941-1953, 1999, which is herein incorporated by reference in its entirety. See also Mark, K. S., Trickier, W. J., and Miller, D. W. Role of Cyclooxygenase-2 and Prostaglandins in the TNF-a Induced Changes in Brain Microvessel Endothelial Cell Permeability. J. Pharmacol. Exp. Ther. 297: I 051-1058, 200 I, which is herein incorporated by reference in its entirety. See also McGuire, T. R., Hoie, E., Trickier, […]., and Miller, D. W. Release of Prostaglandin E-2 in Bovine Brain Endothelial Cells After Exposure to Three Unique Forms of the Antifuingal Drug Amphotericin: Role of COX-2 in Amphotericin-Induced Fever. Life Sci. (accepted for publication), which is herein incorporated by reference in its entirety. These studies indicate that following exposure to either tumor necrosis factor (TNF) or bacterial lipopolysaccharide (LPS), there is an increased expression of cyclooxygenase 2 (COX 2). […] Treatment with bacterial lipopolysaccharide (LPS) alone caused significant increases in prostaglandin E2 (PGE2) release from the cells over the 12 hour exposure period (approximately 1a-fold increase over control).
# cyclooxygenase 1 = cyclooxygenase 1 (Homo sapiens, UniProt P23219); assay: direct inhibition of cyclooxygenase 1; details: at concentrations used in the current study
# Chain of cyclooxygenase 1 (P23219 24-599, species assumed): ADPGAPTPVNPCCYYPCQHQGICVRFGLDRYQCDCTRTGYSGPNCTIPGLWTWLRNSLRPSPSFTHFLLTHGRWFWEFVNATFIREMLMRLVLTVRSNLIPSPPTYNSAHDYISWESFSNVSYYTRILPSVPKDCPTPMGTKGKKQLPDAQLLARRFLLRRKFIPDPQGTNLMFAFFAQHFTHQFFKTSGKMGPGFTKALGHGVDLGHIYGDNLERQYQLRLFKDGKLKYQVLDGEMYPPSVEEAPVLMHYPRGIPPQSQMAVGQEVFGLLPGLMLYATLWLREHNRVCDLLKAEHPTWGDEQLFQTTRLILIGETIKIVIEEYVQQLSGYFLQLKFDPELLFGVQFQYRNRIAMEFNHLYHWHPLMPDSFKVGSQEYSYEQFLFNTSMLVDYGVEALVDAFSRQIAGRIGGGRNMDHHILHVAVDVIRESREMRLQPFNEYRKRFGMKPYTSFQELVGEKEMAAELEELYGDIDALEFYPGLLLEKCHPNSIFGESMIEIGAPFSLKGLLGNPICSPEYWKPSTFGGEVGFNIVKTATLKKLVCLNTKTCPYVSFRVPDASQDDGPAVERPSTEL
# C2Cl2 Muscle Cells [2] = assay: lactic acid levels in and release from C2Cl2 muscle cells under normal and hypoxic conditions; format: cell-based, mouse; details: 100 uM, six hour period
# Description: (§1) Over this time period it was observed that here is a significant, approximately two-fold, increase in the “loading” of CEE in the muscle cells versus CM loading. FIGS. 13 through 15 exemplify the effects of this increased loading of CEE in the C2Cl2 cells under normal and hypoxic conditions. FIGS. 13 through 15 illustrate the results of studies of lactic acid levels in and lactic acid release from C2Cl2 muscle cells. […] The results were gathered over a six hour period of time.
# C2Cl2 Muscle Cells [3] = assay: accumulation (loading) of creatine in C2Cl2 muscle cells; format: cell-based, mouse; details: 3.2 mg/ml, up to 1 hour at 37 C
# Description: as §1
# cyclooxygenase 2 = target: T1, cyclooxygenase 2 (Homo sapiens, UniProt P35354); assay: direct inhibition of cyclooxygenase 2; details: at concentrations used in the current study
# T1 sequence (P35354 18-604): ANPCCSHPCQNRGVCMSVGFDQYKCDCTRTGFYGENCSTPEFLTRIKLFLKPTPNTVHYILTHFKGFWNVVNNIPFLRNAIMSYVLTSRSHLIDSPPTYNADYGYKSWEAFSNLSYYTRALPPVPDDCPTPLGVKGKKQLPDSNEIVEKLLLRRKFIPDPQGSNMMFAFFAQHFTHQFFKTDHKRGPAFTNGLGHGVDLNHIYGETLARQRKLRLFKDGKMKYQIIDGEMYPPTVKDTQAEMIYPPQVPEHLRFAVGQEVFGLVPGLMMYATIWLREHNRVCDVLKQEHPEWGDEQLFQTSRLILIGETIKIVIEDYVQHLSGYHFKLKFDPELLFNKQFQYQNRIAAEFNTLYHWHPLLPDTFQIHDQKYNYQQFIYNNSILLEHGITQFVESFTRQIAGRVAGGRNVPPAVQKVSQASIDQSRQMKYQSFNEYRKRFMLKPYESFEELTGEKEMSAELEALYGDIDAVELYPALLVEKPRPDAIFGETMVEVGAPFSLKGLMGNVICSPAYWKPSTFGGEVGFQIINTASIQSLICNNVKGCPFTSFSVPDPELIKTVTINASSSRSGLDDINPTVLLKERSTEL
# MDCK monolayers [4] = details: dog, 1 h
# MDCK monolayers [5] = assay: permeability (flux) across MDCK monolayers; details: over one hour
# [6] = test system: inflammatory responses produced by carrageenan, 5-hydroxytryptamine, nystatin and formaldehyde; details: oral; cited from earlier work
# [7] = of the administered dose; cited from earlier work
# [8] = gastric pH range of 1-2; cited from earlier work
smiles,measurement,setting,value
"CCOC(=O)CN(C)C(=N)N.Cl [creatine ethyl ester hydrochloride, Creatine Ethyl Ester Hydrochloride]",concentration giving maximal reduction in PGE2 release,"[1]; LPS 20 ng/ml, 12 hour exposure",100 µM
same,lowest concentration with reduction in PGE2 release,"[1]; LPS 20 ng/ml, 12 hour exposure",10 µM
same,effect on prostaglandin E2 (PGE2) release following LPS exposure,"[1]; LPS 20 ng/ml, 12 hour exposure, co-administration",significantly reduced
CCOC(=O)CN(C)C(=N)N [creatine ethyl ester],direct inhibition of cyclooxygenase 1,cyclooxygenase 1,have not presently revealed an inhibition
same,magnitude of PGE2 response compared with indomethacin (10 μM),[1]; 100 μM,similar
same,cellular lactic acid levels,C2Cl2 Muscle Cells [2],marked reduction
same,lactic acid release,C2Cl2 Muscle Cells [2],marked reduction
same,increase in loading in muscle cells versus CM loading,C2Cl2 Muscle Cells [3],approximately two-fold
same,direct inhibition of cyclooxygenase 2,cyclooxygenase 2,have not presently revealed an inhibition
same,flux across MDCK monolayer,MDCK monolayers [4],approximately 20%
CN(CC(=O)O)C(=N)N [creatine monohydrate],flux across MDCK monolayer,MDCK monolayers [5],approximately 10%
same,direct inhibition of cyclooxygenase 1,cyclooxygenase 1; monohydrate,have not presently revealed an inhibition
same,magnitude of PGE2 response compared with indomethacin (10 μM),[1]; 1000 μM,similar
same,concentration giving maximal reduction in PGE2 release,"[1]; LPS 20 ng/ml, 12 hour exposure",at least 1000 μM
same,lowest concentration with reduction in PGE2 release,"[1]; LPS 20 ng/ml, 12 hour exposure",100 µM
same,direct inhibition of cyclooxygenase 2,cyclooxygenase 2; monohydrate,have not presently revealed an inhibition
CN(CC(=O)O)C(=N)N [creatine],direct inhibition of cyclooxygenase 1,cyclooxygenase 1,does not inhibit
same,suppression of experimentally induced inflammatory responses,[6],orally effective
same,Partition,partition coefficient,0.015 +/− 0.007
same,total estimated oral absorption,[7],≤ 14%
same,creatinine/creatine ratio,[8],greater than or equal to 30
same,direct inhibition of cyclooxygenase 2,cyclooxygenase 2,does not inhibit
